Source: US20240166609A1, “ANTIBACTERIAL COMPOUNDS” (BLACKSMITH MEDICINES, INC., priority 2021, published 2024)
≈ marks a conversion by molar mass, not a printed value.

Key:
Experiment in all cases: Bacterial susceptibility testing, MIC by broth microdilution (CLSI)
Type in all cases: cell-based
K. pneumoniae ATCC13883 = settings: Klebsiella pneumoniae, 35° C., 18-24 h, read-out: MIC (μg/mL) K. pneumoniae ATCC13883
Procedure: (§1) Minimal inhibitory concentrations (MIC) were determined by the broth microdilution method in accordance with the Clinical and Laboratory Standards Institute (CLSI) guidelines. In brief, organism suspensions were adjusted to a final inoculum between 3×10^5 and 7×10^5 colony-forming units (CFU)/mL. Drug dilutions and inocula were made in sterile, cation adjusted Mueller-Hinton Broth (Beckton Dickinson). In wells, an inoculum volume of 100 μL was mixed to 2 μL of DMSO with 2-fold serial dilutions of drug. All inoculated microdilution trays were incubated in ambient air at 35° C. for 18-24 h. Following incubation, the lowest concentration of the drug that prevented visible growth (OD600 nm<0.05) was recorded as the MIC. Performance of the assay was monitored by the use of laboratory quality-control strains and compounds with defined MIC spectrum, in accordance with CLSI guidelines

P. aeruginosa 209 PAO1 = settings: Pseudomonas aeruginosa, 35° C., 18-24 h, read-out: MIC (μg/mL) P. aeruginosa 209 PAO1
Procedure: as §1

P. aeruginosa ATCC27835 = settings: Pseudomonas aeruginosa, 35° C., 18-24 h, read-out: MIC (μg/mL) P. aeruginosa ATCC27835
Procedure: as §1

E. coli ATCC25922 = settings: Escherichia coli, 35° C., 18-24 h, read-out: MIC (μg/mL) E. coli ATCC25922
Procedure: as §1

Structure (SMILES)	MIC (K. pneumoniae ATCC13883)	MIC (P. aeruginosa 209 PAO1)	MIC (P. aeruginosa ATCC27835)	MIC (E. coli ATCC25922)
C[C@H](O)c1nccn1CC#Cc1ccc(-c2ccc(C3CC(NCc4cocn4)C3)cc2)cc1 (stereo partly drawn) [Compound 27, (S)-1-(1-(3-(4′-(3-((oxazol-4-ylmethyl)amino)cyclobutyl)-[1,1′-biphenyl]-4-yl)prop-2-yn-1-yl)-1H-imidazol-2-yl)ethan-1-ol]	0.5 µg/mL (≈ 1.1 µM)	2 µg/mL (≈ 4.42 µM)	4 µg/mL (≈ 8.84 µM)	
C[C@H](O)c1nccn1[C@@H](C#Cc1ccc(-c2ccc(C3CC(NCC#N)C3)cc2)cc1)CO (stereo partly drawn) [Compound 28, 2-((3-(4′-((S)-4-hydroxy-3-(2-((S)-1-hydroxyethyl)-1H-imidazol-1-yl)but-1-yn-1-yl)-[1,1′-biphenyl]-4-yl)cyclobutyl)amino)acetonitrile]	0.5 µg/mL (≈ 1.13 µM)	2 µg/mL (≈ 4.54 µM)	4 µg/mL (≈ 9.08 µM)	
C[C@H](O)c1nccn1[C@@H](C#Cc1ccc(-c2ccc([C@H]3C[C@H](NS(C)(=O)=O)C3)cc2)cc1)CO [Compound 36, N-((1S,3r)-3-(4′-((S)-4-hydroxy-3-(2-((S)-1-hydroxyethyl)-1H-imidazol-1-yl)but-1-yn-1-yl)-[1,1′-biphenyl]-4-yl)cyclobutyl)methanesulfonamide]	1 µg/mL (≈ 2.09 µM)	1 µg/mL (≈ 2.09 µM)	2 µg/mL (≈ 4.17 µM)	0.25 µg/mL (≈ 0.521 µM)
C[C@H](O)c1nccn1[C@@H](C#Cc1ccc(-c2ccc(C3CC(NCCC#N)C3)cc2)cc1)CO (stereo partly drawn) [Compound 32, 3-((3-(4′-((S)-4-hydroxy-3-(2-((S)-1-hydroxyethyl)-1H-imidazol-1-yl)but-1-yn-1-yl)-[1,1′-biphenyl]-4-yl)cyclobutyl)amino)propanenitrile]	0.5 µg/mL (≈ 1.1 µM)	1 µg/mL (≈ 2.2 µM)	4 µg/mL (≈ 8.8 µM)	
C[C@H](O)c1nccn1[C@@H](C#Cc1ccc(-c2ccc(C3CC(NC4C(O)OC(CO)C(O)C4O)C3)cc2)cc1)CO (stereo partly drawn) [Compound 39, 3-((3-(4′-((S)-4-hydroxy-3-(2-((S)-1-hydroxyethyl)-1H-imidazol-1-yl)but-1-yn-1-yl)-[1,1′-biphenyl]-4-yl)cyclobutyl)amino)-6-(hydroxymethyl)tetrahydro-2H-pyran-2,4,5-triol]	32 µg/mL (≈ 56.8 µM)	4 µg/mL (≈ 7.1 µM)	8 µg/mL (≈ 14.2 µM)	8 µg/mL (≈ 14.2 µM)
C[C@H](O)c1nccn1[C@@H](C#Cc1ccc(-c2ccc(C3CC(NC(=O)CC#N)C3)cc2)cc1)CO (stereo partly drawn) [Compound 40, 2-cyano-N-(3-(4′-((S)-4-hydroxy-3-(2-((S)-1-hydroxyethyl)-1H-imidazol-1-yl)but-1-yn-1-yl)-[1,1′-biphenyl]-4-yl)cyclobutyl)acetamide]	2 µg/mL (≈ 4.27 µM)	4 µg/mL (≈ 8.54 µM)	2 µg/mL (≈ 4.27 µM)	0.5 µg/mL (≈ 1.07 µM)
C[C@H](O)c1nccn1[C@@H](C#Cc1ccc(-c2ccc(C3CC(NCc4noc(C(N)=O)n4)C3)cc2)cc1)CO (stereo partly drawn) [Compound 35, 3-(((3-(4′-((S)-4-hydroxy-3-(2-((S)-1-hydroxyethyl)-1H-imidazol-1-yl)but-1-yn-1-yl)-[1,1′-biphenyl]-4-yl)cyclobutyl)amino)methyl)-1,2,4-oxadiazole-5-carboxamide]	2 µg/mL (≈ 3.8 µM)	4 µg/mL (≈ 7.6 µM)	4 µg/mL (≈ 7.6 µM)	0.5 µg/mL (≈ 0.949 µM)
C[C@H](O)c1nccn1CC#Cc1ccc(-c2ccc(O[C@@H]3COC[C@H]3O)cc2)cc1 [Compound 42, (3R,4R)-4-((4′-(3-(2-((S)-1-hydroxyethyl)-1H-imidazol-1-yl)prop-1-yn-1-yl)-[1,1′-biphenyl]-4-yl)oxy)tetrahydrofuran-3-ol]	0.5 µg/mL (≈ 1.24 µM)	2 µg/mL (≈ 4.94 µM)	2 µg/mL (≈ 4.94 µM)	0.5 µg/mL (≈ 1.24 µM)
C[C@H](O)c1nccn1[C@@H](C#Cc1ccc(-c2ccc(O[C@@H]3COC[C@H]3O)cc2)cc1)CCO [Compound 43, (3R,4R)-4-((4′-((R)-5-hydroxy-3-(2-((S)-1-hydroxyethyl)-1H-imidazol-1-yl)pent-1-yn-1-yl)-[1,1′-biphenyl]-4-yl)oxy)tetrahydrofuran-3-ol]	2 µg/mL (≈ 4.46 µM)	4 µg/mL (≈ 8.92 µM)	2 µg/mL (≈ 4.46 µM)	1 µg/mL (≈ 2.23 µM)
C[C@H](O)c1nccn1CC#Cc1ccc(-c2ccc(C3CC(NCC(=O)O)C3)cc2)cc1 (stereo partly drawn) [Compound 26, (S)-(3-(4′-(3-(2-(1-hydroxyethyl)-1H-imidazol-1-yl)prop-1-yn-1-yl)-[1,1′-biphenyl]-4-yl)cyclobutyl)glycine]	4 µg/mL (≈ 9.31 µM)	4 µg/mL (≈ 9.31 µM)	4 µg/mL (≈ 9.31 µM)	
C[C@H](O)c1nccn1[C@@H](C#Cc1ccc(-c2ccc(C3CC(NCc4ncon4)C3)cc2)cc1)CO (stereo partly drawn) [Compound 29, (S)-4-(4′-(3-(((1,2,4-oxadiazol-3-yl)methyl)amino)cyclobutyl)-[1,1′-biphenyl]-4-yl)-2-(2-((S)-1-hydroxyethyl)-1H-imidazol-1-yl)but-3-yn-1-ol]	0.5 µg/mL (≈ 1.03 µM)	2 µg/mL (≈ 4.14 µM)	2 µg/mL (≈ 4.14 µM)	
C[C@H](O)c1nccn1[C@@H](C#Cc1ccc(-c2ccc(C[C@@H]3COC[C@H]3O)cc2)cc1)CO [Compound 41, (3S,4R)-4-((4′-((S)-4-hydroxy-3-(2-((S)-1-hydroxyethyl)-1H-imidazol-1-yl)but-1-yn-1-yl)-[1,1′-biphenyl]-4-yl)methyl)tetrahydrofuran-3-ol]	2 µg/mL (≈ 4.62 µM)	4 µg/mL (≈ 9.25 µM)	2 µg/mL (≈ 4.62 µM)	0.5 µg/mL (≈ 1.16 µM)
C[C@H](O)c1nccn1[C@@H](C#Cc1ccc(-c2ccc(C3CC(O)C3)cc2)cc1)CO (stereo partly drawn) [Compound 30, 3-(4′-((S)-4-hydroxy-3-(2-((S)-1-hydroxyethyl)-1H-imidazol-1-yl)but-1-yn-1-yl)-[1,1′-biphenyl]-4-yl)cyclobutan-1-ol]	0.5 µg/mL (≈ 1.24 µM)	0.5 µg/mL (≈ 1.24 µM)	2 µg/mL (≈ 4.97 µM)	
C[C@H](O)c1nccn1CC#Cc1ccc(-c2ccc(C3CC(NCC(=N)N)C3)cc2)cc1 (stereo partly drawn) [Compound 25, (S)-2-((3-(4′-(3-(2-(1-hydroxyethyl)-1H-imidazol-1-yl)prop-1-yn-1-yl)-[1,1′-biphenyl]-4-yl)cyclobutyl)amino)acetimidamide]	0.5 µg/mL (≈ 1.17 µM)	2 µg/mL (≈ 4.68 µM)	4 µg/mL (≈ 9.36 µM)	
C[C@H](O)c1nccn1[C@@H](C#Cc1ccc(-c2ccc(C(O)CO)cc2)cc1)CO (mixture of isomers) [Compound 5, 1-(4′-((S)-4-hydroxy-3-(2-((S)-1-hydroxyethyl)-1H-imidazol-1-yl)but-1-yn-1-yl)-[1,1′-biphenyl]-4-yl)ethane-1,2-diol]	16 µg/mL (≈ 40.8 µM)	4 µg/mL (≈ 10.2 µM)	4 µg/mL (≈ 10.2 µM)	8 µg/mL (≈ 20.4 µM)
C[C@H](O)c1nccn1[C@@H](C#Cc1ccc(-c2ccc(O[C@@H]3CN(CC#N)C[C@H]3O)cc2)cc1)CO [Compound 45, 2-((3R,4R)-3-hydroxy-4-((4′-((S)-4-hydroxy-3-(2-((S)-1-hydroxyethyl)-1H-imidazol-1-yl)but-1-yn-1-yl)-[1,1′-biphenyl]-4-yl)oxy)pyrrolidin-1-yl)acetonitrile]	8 µg/mL (≈ 16.9 µM)	2 µg/mL (≈ 4.23 µM)	2 µg/mL (≈ 4.23 µM)	16 µg/mL (≈ 33.9 µM)
C[C@H](O)c1nccn1[C@@H](C#Cc1ccc(-c2ccc(C3CC(NCC(F)F)C3)cc2)cc1)CO (stereo partly drawn) [Compound 31, (S)-4-(4′-(3-((2,2-difluoroethyl)amino)cyclobutyl)-[1,1′-biphenyl]-4-yl)-2-(2-((S)-1-hydroxyethyl)-1H-imidazol-1-yl)but-3-yn-1-ol]	0.25 µg/mL (≈ 0.537 µM)	2 µg/mL (≈ 4.3 µM)	4 µg/mL (≈ 8.59 µM)	
C[C@H](O)c1nccn1[C@@H](C#Cc1ccc(-c2ccc(C3CC(NC(C#N)CO)C3)cc2)cc1)CO (stereo partly drawn) [Compound 33, 3-hydroxy-2-((3-(4′-((S)-4-hydroxy-3-(2-((S)-1-hydroxyethyl)-1H-imidazol-1-yl)but-1-yn-1-yl)-[1,1′-biphenyl]-4-yl)cyclobutyl)amino)propanenitrile]	4 µg/mL (≈ 8.5 µM)	2 µg/mL (≈ 4.25 µM)	2 µg/mL (≈ 4.25 µM)	
